# According to patent US10815222B2, “Compounds for use in the treatment of kinetoplastid infection” (C.N.C.C.S. S.c.a.r.l. COLLEZIONE NAZIONALE DEI COMPOSTI …, priority 2016, dated 2020):
# System: Bloodstream form of Trypanosoma brucei, strain Lister 427
# Experiment: Trypanosoma brucei growth inhibition assay (CellTiter-Glo, 24 h)
# Type: cell-based
# Conditions: Trypanosoma brucei; T. Brucei Growth Inibition Assay, class symbols; read-out: T. Brucei GI EC50
# Procedure: Bloodstream form of Trypanosoma brucei, strain Lister 427 (provided by Prof. Miguel Navarro, Instituto de Parasitologia y Biomedicina “Lopez-Neyra” Avda. Conocimiento S/N Parque Tecnologico Ciencias de la Salud—Spain; ref. Navarro M. and Cross G. A. M. Molecular and Cellular Biology, 1996, Vol. 16, No. 7, pp. 3615-3625) were grown in IMDM Iscove's Modified Dulbecco's Medium (SIGMA #17633) supplemented with: 3.024 g/l sodium bicarbonate, hypoxanthine 1 mM, thymidine 0.16 mM, bathocuprione sulfonic acid 0.05 mM, cysteine 1.5 mM, ß-mercaptoethanol […] and 10% foetal bovine serum (heat-inactivated at 56° C. for 30 min). Parasites were grown at 37° C. in flasks with vented caps in a 5% CO2 incubator to a maximum cell density of about 2×10^6/ml and diluted every two-three days.
# The compounds of the invention were dissolved in DMSO and transferred to assay plates by acoustic droplet ejection (ATS-100, EDC Biosystems, USA) in order to obtain an appropriate concentration and to keep the concentration of DMSO below or equal to 0.25% in the final assay volume of 30 μL. 1500 parasites resuspended in 30 μL of culture medium were then transferred to each well of a 384-well plate.
# After an incubation period of 24 hours at 37° C., each well is added 15 μl of CellTiter-Glo® Reagent (Promega) and incubated at room temperature. 5-10 min post incubation, the plate is read using a luminometer (ViewLux®). A known inhibitor of the growth of T. brucei was used as the reference positive control.
row,SMILES,EC50 [nM]
1,COc1nc2ccccc2cc1-c1cnc(C2CN(CC3CCOC3)CCN2C(=O)Cn2c(C#N)nc3ccccc32)[nH]1 (stereo not shown),1010 to 5000
2,O=C(Cc1c[nH]c2ncccc12)N1CCCCC1c1ncc(-c2ccc3ccccc3c2)[nH]1 (stereo not shown),1010 to 5000
3,COc1nc2ccccc2cc1-c1cnc([C@@H]2CN(CC3CCOC3)CCN2C(=O)Cn2c(C(N)=O)nc3ccccc32)[nH]1 (stereo partly shown),510 to 1000
4,O=C(Cc1c[nH]c2ncccc12)N1CCOCC1c1ncc(-c2ccc3ccccc3c2)[nH]1 (stereo not shown),1010 to 5000
5,CN1CCN(C(=O)Cc2ccncc2)C(c2ncc(-c3ccc4ccccc4c3)[nH]2)C1 (stereo not shown),1010 to 5000
6,CN1CCN(C(=O)CCS(=O)(=O)c2ccccc2)C(c2ncc(-c3ccc4ccccc4c3)[nH]2)C1 (stereo not shown),1010 to 5000
7,COc1ccc2nc(C)n(CC(=O)N3CCN(CC4CCOC4)C[C@H]3c3ncc(-c4cc5ccccc5[nH]4)[nH]3)c2c1 (stereo partly shown),1010 to 5000
8,COc1nc2ccccc2cc1-c1cnc([C@@H]2CN(CC3CCOC3)CCN2C(=O)Cn2cc(C(F)(F)F)nc2C)[nH]1 (stereo partly shown),1010 to 5000
9,COc1nc2ccccc2cc1-c1cnc([C@@H]2CN(CC3CCOC3)CCN2C(=O)C(C)(C)n2c(C(F)(F)F)nc3ccccc32)[nH]1 (stereo partly shown),1010 to 5000
10,COc1nc2ccccc2cc1-c1cnc([C@@H]2CN(CC3CCOC3)CCN2C(=O)Cn2c(C)nc3cncnc32)[nH]1 (stereo partly shown),100 to 500
11,COc1nc2ccccc2cc1-c1cnc([C@@H]2CN(CC3CCOC3)CCN2C(=O)Cn2c(C)nc3ccc(S(C)(=O)=O)cc32)[nH]1 (stereo partly shown),100 to 500
12,COc1nc2ccccc2cc1-c1cnc([C@@H]2CN(CC3CCOC3)CCN2C(=O)Cn2c(C(F)(F)F)nc3ncccc32)[nH]1 (stereo partly shown),1010 to 5000
13,COc1nc2ccccc2cc1-c1cnc([C@@H]2CN(CC3CCOC3)CCN2C(=O)Cn2c(C)nc3cc(C(F)(F)F)ccc32)[nH]1 (stereo partly shown),100 to 500
14,COc1nc2ccccc2cc1-c1cnc([C@@H]2CN(CC3CCOC3)CCN2C(=O)Cn2c(S(C)(=O)=O)nc3ccccc32)[nH]1 (stereo partly shown),100 to 500
15,COc1nc2ccccc2cc1-c1cnc([C@@H]2CN(CC3CCOC3)CCN2C(=O)Cn2c(C)nc3ncncc32)[nH]1 (stereo partly shown),1010 to 5000
16,COc1nc2ccccc2cc1-c1cnc([C@@H]2CN(CC3CCOC3)CCN2C(=O)Cn2c(CC(F)(F)F)nc3ccccc32)[nH]1 (stereo partly shown),100 to 500
17,COc1ccc2nc(C)n(CC(=O)N3CCC(O)C[C@H]3c3ncc(-c4cc5ccccc5nc4OC)[nH]3)c2c1 (stereo partly shown),510 to 1000
18,COc1ccc2nc(C(F)(F)F)n(CC(=O)N3CC[C@@H](N(C)C)C[C@H]3c3ncc(-c4cc5ccccc5nc4OC)[nH]3)c2c1,510 to 1000
19,COc1nc2ccccc2cc1-c1cnc(C2COCCN2C(=O)Cn2nnc3ccccc32)[nH]1 (stereo not shown),1010 to 5000
20,COc1nc2ccccc2cc1-c1cnc(C2COCCN2C(=O)Cn2nc(C)c3ccccc3c2=O)[nH]1 (stereo not shown),1010 to 5000
21,COc1nc2ccccc2cc1-c1cnc([C@@H]2CN(CC3CCOC3)CCN2C(=O)Cn2c(C3CCC3)nc3ccccc32)[nH]1 (stereo partly shown),100 to 500

row,SMILES,EC50 [nM]
1,CN1CCN(C(=O)Cc2ccccc2F)C(c2ncc(-c3ccc4ccccc4c3)[nH]2)C1 (stereo not shown),1010 to 5000
2,COc1ccc(CC(=O)N2CCN(C)CC2c2ncc(-c3ccc4ccccc4c3)[nH]2)cc1 (stereo not shown),1010 to 5000
3,COc1nc2ccccc2cc1-c1cnc([C@@H]2CN(CC3CCOC3)CCN2C(=O)Cc2noc3ccc(F)cc23)[nH]1 (stereo partly shown),1010 to 5000
4,COc1ccc2onc(CC(=O)N3CCN(CC4CCOC4)C[C@H]3c3ncc(-c4cc5ccccc5nc4OC)[nH]3)c2c1 (stereo partly shown),100 to 500
5,COc1ccc2nc(C(F)(F)F)n(CC(=O)N3CCN(CCc4csc(C)n4)CCC3c3ncc(-c4cc5ccccc5nc4OC)[nH]3)c2c1 (stereo not shown),100 to 500
6,COc1ccc2nc(C(F)(F)F)n(CC(=O)N3CCN(Cc4noc(C)n4)CCC3c3ncc(-c4cc5ccccc5nc4OC)[nH]3)c2c1 (stereo not shown),100 to 500
7,COc1ccc2nc(C(F)(F)F)n(CC(=O)N3CCOCC3c3ncc(-c4cc5ccccc5nc4OC)[nH]3)c2c1 (stereo not shown),100 to 500
8,COc1ccc2nc(C(F)(F)F)n(CC(=O)N3CCN(CC4COC4)CCC3c3ncc(-c4cc5ccccc5nc4OC)[nH]3)c2c1 (stereo not shown),100 to 500
9,COc1ccc2nc(C(F)(F)F)n(CC(=O)N3CC[C@@H](NCc4nccs4)C[C@H]3c3ncc(-c4cc5ccccc5nc4OC)[nH]3)c2c1,100 to 500
10,COc1ccc2nc(C(F)(F)F)n(CC(=O)N3CC[C@@H](NC4CCOC4)C[C@H]3c3ncc(-c4cc5ccccc5nc4OC)[nH]3)c2c1 (stereo partly shown),100 to 500
11,COc1ccc2nc(C(F)(F)F)n(CC(=O)N3CCN(C)CCC3c3ncc(-c4cc5ccccc5nc4OC)[nH]3)c2c1 (stereo not shown),510 to 1000
12,COc1ccc2nc(C)n(CC(=O)N3CCS(=O)(=O)CC3c3ncc(-c4cc5ccccc5nc4OC)[nH]3)c2c1 (stereo not shown),1010 to 5000
13,COc1ccc2nc(C)n(CC(=O)N3CCCCC3c3ncc(-c4cc5ccccc5nc4OC)[nH]3)c2c1 (stereo not shown),100 to 500
14,COc1ccc2nc(C)n(CC(=O)N3CCN(CC4CCOC4)C[C@H]3c3ncc(-c4cnc5ccccc5c4)[nH]3)c2c1 (stereo partly shown),510 to 1000
15,COc1ccc2nc(C)n(CC(=O)N3CCN(CC4COC4)CCC3c3ncc(-c4cc5ccccc5nc4OC)[nH]3)c2c1 (stereo not shown),510 to 1000
16,COc1ccc2nc(C)n(CC(=O)N3CCN(C[C@H]4CCOC4)CC3c3ncc(-c4ccc(-c5ccccc5)nc4OC)[nH]3)c2c1 (stereo partly shown),100 to 500
17,COc1ccc2nc(C)n(CC(=O)N3CCN(C)CCC3c3ncc(-c4cc5ccccc5nc4OC)[nH]3)c2c1 (stereo not shown),1010 to 5000
18,COc1ccc2nc(C)n(CC(=O)N3CCOCC3c3ncc(-c4cc5ccccc5nc4OC)[nH]3)c2c1 (stereo not shown),1010 to 5000
19,COc1ccc2nc(C)n(CC(=O)N3CCN(CC4CCOC4)C[C@H]3c3ncc(-c4ccc5ncccc5c4)[nH]3)c2c1 (stereo partly shown),1010 to 5000
20,COc1ccc2nc(C)n(CC(=O)N3CCN(Cc4cnccn4)CCC3c3ncc(-c4cc5ccccc5nc4OC)[nH]3)c2c1 (stereo not shown),100 to 500
21,COc1ccc2nc(C)n(CC(=O)N3CCN(C[C@@H]4CCOC4)CC3c3ncc(-c4ccc(-c5ccccc5)nc4OC)[nH]3)c2c1 (stereo partly shown),1010 to 5000

row,SMILES,EC50 [nM]
1,COc1ccc2cc(C)n(CC(=O)N3CCCCC3c3ncc(-c4cc5ccccc5nc4OC)[nH]3)c2c1 (stereo not shown),100 to 500
2,COc1ccc2cc(C)n(CC(=O)N3CCS(=O)(=O)CC3c3ncc(-c4cc5ccccc5nc4OC)[nH]3)c2c1 (stereo not shown),510 to 1000
3,COc1ccc2cc(C)n(CC(=O)N3CCOCC3c3ncc(-c4cc5ccccc5nc4OC)[nH]3)c2c1 (stereo not shown),510 to 1000
4,COc1ccc2cc(C)n(CC(=O)N3CCN(C)CCC3c3ncc(-c4cc5ccccc5nc4OC)[nH]3)c2c1 (stereo not shown),510 to 1000
5,CCC(=O)CCCN1CCN(C(=O)Cn2ccnn2)C(c2ncc(-c3ccc4ccccc4c3)[nH]2)C1 (stereo not shown),1010 to 5000
6,CCC(=O)CCCN1CCN(C(=O)Cc2c[nH]c3ncccc23)C(c2ncc(-c3cc4ccccc4nc3OC)[nH]2)C1 (stereo not shown),510 to 1000
7,CCC(=O)CCCN1CCN(C(=O)Cc2c(C)[nH]c3ccc(OC)cc23)C(c2ncc(-c3cc4ccccc4nc3OC)o2)C1 (stereo not shown),1010 to 5000
8,CCC(=O)CCCN1CCN(C(=O)Cc2c(C)[nH]c3ccc(OC)cc23)C(c2ncc(-c3ccccc3)[nH]2)C1 (stereo not shown),100 to 500
9,CN1CCN(C(=O)C2(c3ccccc3)CC2)C(c2ncc(-c3ccc4ccccc4c3)[nH]2)C1 (stereo not shown),1010 to 5000
10,CCC(=O)CCCN1CCN(C(=O)Cc2c[nH]c3ccccc23)[C@@H](c2ncc(-c3ccc4ccccc4c3)[nH]2)C1,1010 to 5000
11,COc1nc2ccccc2cc1-c1cnc([C@@H]2CN(Cc3cnn(C)c3)CCN2C(=O)Cn2c(C(F)(F)F)nc3ccccc32)[nH]1,100 to 500
12,COc1ccc2nc(C)n(CC(=O)N3CCN(C4CCN(C(C)=O)CC4)C[C@H]3c3ncc(-c4cc5ccccc5nc4OC)[nH]3)c2c1,510 to 1000
13,COc1ccc2nc(C)n(CC(=O)N3CCN(C4CCS(=O)(=O)CC4)C[C@H]3c3ncc(-c4cc5ccccc5nc4OC)[nH]3)c2c1,510 to 1000
14,COc1ccc2nc(C(F)(F)F)n(CC(=O)N3CCN(CCn4cnnc4)C[C@H]3c3ncc(-c4cc5ccccc5nc4OC)[nH]3)c2c1,1010 to 5000
15,COc1nc2ccccc2cc1-c1cnc([C@@H]2CN(Cc3ccccc3F)CCN2C(=O)Cn2c(C(F)(F)F)nc3ccccc32)[nH]1,100 to 500
16,COc1ccc2nc(C)n(CC(=O)N3CCN(Cc4nnc(C)o4)C[C@H]3c3ncc(-c4cc5ccccc5nc4OC)[nH]3)c2c1,100 to 500
17,CCC(=O)CCCN1CCN(C(=O)Cc2c[nH]c3ccccc23)[C@H](c2ncc(-c3ccc4ccccc4c3)[nH]2)C1,100 to 500
18,COC(=O)CCCN1CCN(C(=O)Cc2c(C)[nH]c3ccc(OC)cc23)C(c2ncc(-c3ccc4ccccc4c3)[nH]2)C1 (stereo not shown),100 to 500
19,COc1ccc2nc(C)n(CC(=O)N3CCN(CC4CCOC4)C[C@H]3c3ncc(-c4cc5ccccc5n4C(=O)OC(C)(C)C)[nH]3)c2c1 (stereo partly shown),1010 to 5000
